Target: T1, FtsY (T. aquaticus) (Thermus aquaticus, UniProt P83749)
T1 construct: FtsY retaining N-terminal helix N1 (naturally lacks A-domain), NG domains; expressed in E. coli BL21(DE3) from pET21; apo/GMPPNP NCS dimer in crystal
T1 sequence (P83749 1-304): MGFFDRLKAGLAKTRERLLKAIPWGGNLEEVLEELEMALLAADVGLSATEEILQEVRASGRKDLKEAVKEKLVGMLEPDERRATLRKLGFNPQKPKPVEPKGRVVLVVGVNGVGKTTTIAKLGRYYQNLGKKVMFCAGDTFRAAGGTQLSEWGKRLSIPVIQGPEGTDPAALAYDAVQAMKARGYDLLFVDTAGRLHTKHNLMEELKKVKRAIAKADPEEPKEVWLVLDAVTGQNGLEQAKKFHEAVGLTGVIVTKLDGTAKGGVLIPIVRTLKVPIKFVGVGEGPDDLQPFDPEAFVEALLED
Assay: X-ray crystal structure of complex ([…] and […] Å)
Type: binding
Conditions: non-hydrolysable GTP analogue; form I (F1, 2.2 Å) grown with MgCl2, no ordered Mg2+; form II (F2, 2.3 Å) without Mg2+; GTPase active site, one monomer of the dimer

## Nc1nc2c(ncn2[C@@H]2O[C@H](COP(=O)(O)OP(=O)(O)NP(=O)(O)O)[C@@H](O)[C@H]2O)c(=O)[nH]1 [GMPPNP]
  X-ray crystal structure of complex (2.2 and 2.3 Å): one monomer in apo-FtsY and the other FtsY monomer bound with GMPPNP
